Among the data in patent US20110166121A1 (LG LIFE SCIENCES LTD., priority 2008, published 2011) are IC50 and Ki values, retold here.

For one test, the target named is T1, Human P2Y12 receptor (Homo sapiens, UniProt Q9H244).
T1 construct: expressed in transfected cells; host or cells: HEK cells
Put plainly: Human P2Y12 receptor cell membrane binding assay with [3H] 2-Mes-ADP. The settings on record: 1 nM [3H] 2-Mes-ADP, membranes of HEK cells expressing P2Y12 receptor; read-out: Binding activity (IC50). The procedure, abridged:
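Competition binding used 1 nM [3H]2-MeS-ADP on P2Y12-expressing HEK cell membranes for 1 h at room temperature, followed by filtration and scintillation counting.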

The subject of test [1] is Human platelet aggregation caused by ADP. Nature of the test: Inhibition of ADP-induced platelet aggregation (Mimic-human PRP). Format: cell-based. The settings on record: 20 μM ADP, human platelet concentrate diluted with PPP, absorption at 595 nm. The procedure, abridged:
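Ki came from non-linear sigmoidal fits of inhibition, measured as the 3-min rise in absorbance at 595 nm after 20 μM ADP, relative to 0/20 μM ADP controls. Platelets (3–4×10^8/mL in PPP-diluted human PRP) were exposed to 0.01–30 μM compound for 20 min at room temperature beforehand.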

T1 sequence (Q9H244 whole entry): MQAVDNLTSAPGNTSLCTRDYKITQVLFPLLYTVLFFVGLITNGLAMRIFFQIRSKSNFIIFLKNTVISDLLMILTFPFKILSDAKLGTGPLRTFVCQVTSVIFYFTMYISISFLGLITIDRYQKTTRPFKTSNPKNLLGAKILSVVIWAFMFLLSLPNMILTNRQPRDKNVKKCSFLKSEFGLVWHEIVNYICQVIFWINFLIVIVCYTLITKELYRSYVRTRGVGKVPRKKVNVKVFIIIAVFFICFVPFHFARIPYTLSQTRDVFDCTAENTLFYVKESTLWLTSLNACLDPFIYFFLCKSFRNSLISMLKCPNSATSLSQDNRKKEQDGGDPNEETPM

As usually defined, the IC50 is the concentration that inhibits the measured activity by half. As usually defined, the Ki is a measure of affinity in units of concentration, obtained from inhibition or displacement. Low values mean tighter binding, high ones weaker binding. On to `CCCc1cc2c(N3CCn4c(nnc4C(F)(F)F)C3)nc(OCC(CO)CO)nc2s1` [Example 3-2, 2-[6-Propyl-4-(3-trifluoromethyl-5,6-dihydro-8H-[1,2,4]triazolo[4,3-a]pyrazin-7-yl)-thieno[2,3-d]pyrimidin-2-yloxymethyl]-propane-1,3-diol], for which, on Human P2Y12 receptor, the IC50 turned out to be 200 nM. Also, in test [1], the Ki was found to be 17 nM.

With `CCCc1cc2c(N3CCn4c(nnc4C(F)(F)F)C3)nc(OCCO)nc2s1` [Example 3-3, 2-[6-Propyl-4-(3-trifluoromethyl-5,6-dihydro-8H-[1,2,4]triazolo[4,3-a]pyrazin-7-yl)-thieno[2,3-d]pyrimidin-2-yloxy]-ethanol], the IC50 on Human P2Y12 receptor came out at 113 nM. In test [1], this compound registered a Ki of 30 nM.

For `CCCc1cc2c(N3CCn4c(nnc4C(F)(F)F)C3)nc(OCCOC)nc2s1` [Example 3-4, 7-[2-(2-Methoxy-ethoxy)-6-propyl-thieno[2,3-d]pyrimidin-4-yl]-3-trifluoromethyl-5,6,7,8-tetrahydro-[1,2,4]triazolo[4,3-a]pyrazine], the IC50 on Human P2Y12 receptor stood at 170 nM. This compound gave a Ki in test [1] of 230 nM.

Turning to `CCCc1cc2c(N3CCn4c(nnc4C(F)(F)F)C3)nc(OC3CCOC3)nc2s1` (centres unmarked) [Example 3-5, 7-[6-Propyl-2-(tetrahydro-furan-3-yloxy)-thieno[2,3-d]pyrimidin-4-yl]-3-trifluoromethyl-5,6,7,8-tetrahydro-[1,2,4]triazolo[4,3-a]pyrazine], the IC50 on Human P2Y12 receptor came to 91 nM. Moreover, affinity in test [1] was put at a Ki of 26 nM.

Turning to `CCCc1cc2c(N3CCn4c(nnc4C(F)(F)F)C3)nc(OCC3CCCO3)nc2s1` (centres unmarked) [Example 3-6, 7-[6-Propyl-2-(tetrahydro-furan-2-ylmethoxy)-thieno[2,3-d]pyrimidin-4-yl]-3-trifluoromethyl-5,6,7,8-tetrahydro-[1,2,4]triazolo[4,3-a]pyrazine], the concentration for half-maximal inhibition (IC50) on Human P2Y12 receptor is 690 nM. The compound further had a Ki in test [1] of 140 nM.

Consider `CCCc1cc2c(N3CCn4c(nnc4C(F)(F)F)C3)nc(OC3CCN(C)C3)nc2s1` (centres unmarked) [Example 3-7, 7-[2-(1-Methyl-pyrrolidin-3-yloxy)-6-propyl-thieno[2,3-d]pyrimidin-4-yl]-3-trifluoromethyl-5,6,7,8-tetrahydro-[1,2,4]triazolo[4,3-a]pyrazine], for which, at Human P2Y12 receptor, the IC50 was determined as 540 nM. In addition, the affinity in test [1], expressed as Ki, was 300 nM.

As to `CCCc1cc2c(N3CCn4c(nnc4C(F)(F)F)C3)nc(OCC(=O)OC)nc2s1` [Example 3-8, [6-Propyl-4-(3-trifluoromethyl-5,6-dihydro-8H-[1,2,4]triazolo[4,3-a]pyrazin-7-yl)-thieno[2,3-d]pyrimidin-2-yloxy]-acetic acid methyl ester], the IC50 on Human P2Y12 receptor is 331 nM. This compound yielded a Ki in test [1] of 610 nM.

For `CCCc1cc2c(N3CCn4c(nnc4C(F)(F)F)C3)nc(OCC(=O)O)nc2s1` [Example 3-9, [6-Propyl-4-(3-trifluoromethyl-5,6-dihydro-8H-[1,2,4]triazolo[4,3-a]pyrazin-7-yl)-thieno[2,3-d]pyrimidin-2-yloxy]-acetic acid], the IC50 at Human P2Y12 receptor turned out to be 826 nM. Further, the Ki in test [1] was determined as 3700 nM.

In the case of `CCCc1cc2c(N3CCn4c(nnc4C(F)(F)F)C3)nc(OCCCO)nc2s1` [Example 3-10, 3-[6-Propyl-4-(3-trifluoromethyl-5,6-dihydro-8H-[1,2,4]triazolo[4,3-a]pyrazin-7-yl)-thieno[2,3-d]pyrimidin-2-yloxy]-propan-1-ol], on Human P2Y12 receptor, the IC50 was 140 nM. Moreover, the affinity in test [1], expressed as Ki, was 64 nM.

With `CCCc1cc2c(N3CCn4c(nnc4C(F)(F)F)C3)nc(OCCC(=O)O)nc2s1` [Example 3-11, 3-[6-Propyl-4-(3-trifluoromethyl-5,6-dihydro-8H-[1,2,4]triazolo[4,3-a]pyrazin-7-yl)-thieno[2,3-d]pyrimidin-2-yloxy]-propionic acid], on Human P2Y12 receptor, the IC50 was found to be 72 nM. Further, the Ki in test [1] came to 70 nM.

Consider `CCCc1cc2c(N3CCn4c(nnc4C(F)(F)F)C3)nc(OCCC(=O)OC(C)C)nc2s1` [Example 3-12, 3-[6-Propyl-4-(3-trifluoromethyl-5,6-dihydro-8H-[1,2,4]triazolo[4,3-a]pyrazin-7-yl)-thieno[2,3-d]pyrimidin-2-yloxy]-propionic acid isopropyl ester], for which, on Human P2Y12 receptor, the IC50 is 160 nM. Besides, the affinity in test [1] corresponds to a Ki of 50 nM.

As for `CCCc1cc2c(N3CCn4c(nnc4C(F)(F)F)C3)nc(OCCC(=O)OCOC(=O)C(C)(C)C)nc2s1` [Example 3-13, 2,2-Dimethyl-propionic Acid 3-[6-propyl-4-(3-trifluoromethyl-5,6-dihydro-8H-[1,2,4]triazolo[4,3-a]pyrazin-7-yl)-thieno[2,3-d]pyrimidin-2-yloxy]-propionyloxymethyl ester], on Human P2Y12 receptor, the IC50 amounted to 410 nM. This compound showed a Ki in test [1] of 430 nM.

Regarding `CCCc1cc2c(N3CCn4c(nnc4C(F)(F)F)C3)nc(OCCC(OC)OC)nc2s1` [Example 3-14, 7-[2-(3,3-Dimethoxy-propoxy)-6-propyl-thieno[2,3-d]pyrimidin-4-yl]-3-trifluoromethyl-5,6,7,8-tetrahydro-[1,2,4]triazolo[4,3-a]pyrazine], at Human P2Y12 receptor, the IC50 was 240 nM. Affinity in test [1] was put at a Ki of 1100 nM.

For `CCCc1cc2c(N3CCn4c(nnc4C(F)(F)F)C3)nc(OC3CCCC3)nc2s1` [Example 3-15, 7-(2-Cyclopentyloxy-6-propyl-thieno[2,3-d]pyrimidin-4-yl)-3-trifluoromethyl-5,6,7,8-tetrahydro-[1,2,4]triazolo[4,3-a]pyrazine], the IC50 on Human P2Y12 receptor amounted to 53 nM. The compound also came in with a Ki in test [1] of 300 nM.

For `CCCc1cc2c(N3CCn4c(nnc4C(F)(F)F)C3)nc(OCc3ccccc3)nc2s1` [Example 3-16, 7-(2-Benzyloxy-6-propyl-thieno[2,3-d]pyrimidin-4-yl)-3-trifluoromethyl-5,6,7,8-tetrahydro-[1,2,4]triazolo[4,3-a]pyrazine], at Human P2Y12 receptor, the half-maximal inhibitory concentration (IC50) worked out at 39 nM. Further, in test [1], the Ki came out at 27600 nM.

Take `CCCCOc1nc(N2CCn3c(nnc3C(F)(F)F)C2)c2cc(CCC)sc2n1` [Example 3-17, 7-(2-Butoxy-6-propyl-thieno[2,3-d]pyrimidin-4-yl)-3-trifluoromethyl-5,6,7,8-tetrahydro-[1,2,4]triazolo[4,3-a]pyrazine]: the IC50 at Human P2Y12 receptor is 110 nM. In test [1], this compound returned a Ki of 3200 nM.

Turning to `CCCc1cc2c(N3CCn4c(nnc4C(F)(F)F)C3)nc(OCc3nc(CC(=O)OCC)co3)nc2s1` [Example 3-18, {2-[6-Propyl-4-(3-trifluoromethyl-5,6-dihydro-8H-[1,2,4]triazolo[4,3-a]pyrazin-7-yl)-thieno[2,3-d]pyrimidin-2-yloxymethyl]-oxazol-4-yl}-acetic acid ethyl ester], the IC50 on Human P2Y12 receptor stood at 400 nM. In test [1], this compound returned a Ki of 4300 nM.

As for `CCCc1cc2c(N3CCn4c(nnc4C(F)(F)F)C3)nc(OCc3nc(CC(=O)O)co3)nc2s1` [Example 3-19, {2-[6-Propyl-4-(3-trifluoromethyl-5,6-dihydro-8H-[1,2,4]triazolo[4,3-a]pyrazin-7-yl)-thieno[2,3-d]pyrimidin-2-yloxymethyl]-oxazol-4-yl}-acetic acid], at Human P2Y12 receptor, the IC50 worked out at 170 nM. In test [1], this compound showed a Ki greater than 4000 nM.

As for `CCCc1cc2c(N3CCn4c(nnc4C(F)(F)F)C3)nc(OCc3cocn3)nc2s1` [Example 3-20, 7-[2-(Oxazol-4-ylmethoxy)-6-propyl-thieno[2,3-d]pyrimidin-4-yl]-3-trifluoromethyl-5,6,7,8-tetrahydro-[1,2,4]triazolo[4,3-a]pyrazine], the half-inhibitory concentration (IC50) on Human P2Y12 receptor worked out at 84 nM. Further, in test [1], the Ki turned out to be 840 nM.
